Measured values: patent US6884809B2 (Cornell Research Foundation, Inc., priority 2001, dated 2005)

Tests used:
SH-SY5Y cells [1] = assay type: cell-based, human
SH-SY5Y cells [2] = assay type: cell-based, human; remark: listed apart in the source
[3] = test system: guinea-pig heart synaptosomes; assay type: cell-based
SH-SY5Y-H3 cells [4] = experiment: Cai measurements (Fura-2) in K+-depolarized H3R-transfected SH-SY5Y-H3 cells; assay type: cell-based, human
SH-SY5Y-H3 cells [5] = assay type: cell-based, human
Na+/H+ exchanger (NHE) = experiment: NHE activity: Na+-dependent pHi recovery after NH4Cl acid pulse in BCECF-loaded SKNMC-H3 cells; assay type: cell-based, human
H3R = H3R (Homo sapiens, UniProt Q9Y5N1); settings: read-out: EC50 to activate the H3R; cited from earlier work
[6] = thioperamide 300 nM plus imetit 100 nM

Sequence of H3R (Q9Y5N1 whole entry, species assumed): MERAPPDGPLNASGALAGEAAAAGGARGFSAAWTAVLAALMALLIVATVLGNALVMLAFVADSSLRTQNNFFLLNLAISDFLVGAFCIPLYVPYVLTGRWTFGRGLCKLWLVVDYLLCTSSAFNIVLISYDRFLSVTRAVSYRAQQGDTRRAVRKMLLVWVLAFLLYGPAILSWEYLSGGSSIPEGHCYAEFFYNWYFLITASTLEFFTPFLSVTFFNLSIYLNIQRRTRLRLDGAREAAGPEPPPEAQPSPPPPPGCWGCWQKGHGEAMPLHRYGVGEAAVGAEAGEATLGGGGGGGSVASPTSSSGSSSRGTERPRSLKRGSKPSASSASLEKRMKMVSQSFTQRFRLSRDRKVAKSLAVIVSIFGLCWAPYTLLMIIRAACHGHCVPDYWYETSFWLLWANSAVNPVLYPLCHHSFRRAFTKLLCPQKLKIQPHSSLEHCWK

ω-conotoxin GVIA [ω-CTX]
increase in peak Cai concentration on K+ depolarization (SH-SY5Y cells [1]): markedly attenuated
concentration-response curve for K+-induced exocytosis of [3H]NE (SH-SY5Y cells [2]): shifted markedly downwards
concentration-response curve for K+-induced exocytosis of endogenous NE [3]: shifted markedly downwards
increase in peak Cai concentration on K+ depolarization (SH-SY5Y-H3 cells [4]): markedly attenuated
concentration-response curve for K+-induced exocytosis of [3H]NE (SH-SY5Y-H3 cells [5]): shifted markedly downwards

S=C(NC1CCCCC1)N1CCC(c2c[nH]cn2)CC1 [thioperamide, Thioperamide]
effect on NHE activity (Na+/H+ exchanger (NHE); thioperamide 300 nM alone): did not significantly modify NHE activity
effect on imetit-induced NHE attenuation (Na+/H+ exchanger (NHE); [6]): abolished the imetit-induced NHE attenuation
effect on imetit-induced attenuation of endogenous NE exocytosis [3]: prevented
effect on imetit-induced depression of the rise in Cai concentration (SH-SY5Y-H3 cells [4]; [6]): completely prevented
effect on the imetit response of Ca2+ transients (SH-SY5Y-H3 cells [4]; [6]): prevented
effect on imetit-induced attenuation of [3H]NE exocytosis (SH-SY5Y-H3 cells [5]): prevented

N=C(N)SCCc1cnc[nH]1 [imetit, Imetit]
K+-elicited Cai transients (SH-SY5Y cells [1]): fails to affect Cai transients
effect on peak Cai concentration elicited by 100 mM K+ (SH-SY5Y cells [1]): failed to affect peak Cai concentration
inhibition of NHE activity (Na+/H+ exchanger (NHE); imetit 100 nM): 35%
rate of intracellular alkalinization, representative single cell (Na+/H+ exchanger (NHE); imetit 100 nM, cell of FIG. 1B, control cell 0.094): 0.050 pHi units/min
final pHi after re-introduction of Na+ (Na+/H+ exchanger (NHE); imetit 100 nM, n=277 cells): 6.61±0.01
initial pHi (Na+/H+ exchanger (NHE); imetit-treated cells, n=277): 6.74±0.01
pHi right before Na+ was reintroduced (0 Na pHi) (Na+/H+ exchanger (NHE); imetit-treated cells, n=277): 6.26±0.01
cells with rates lower than the mean control rate of 0.074 pHi units/min (Na+/H+ exchanger (NHE); imetit-treated, 277 cells): 77%
concentration-response curve for K+-induced exocytosis of endogenous NE [3]: significantly shifted downwards
K+-elicited Ca2+ transients (SH-SY5Y-H3 cells [4]): markedly depressed
decrease in peak Cai concentration elicited by 100 mM K+ (SH-SY5Y-H3 cells [4]): 55%
EC50 (H3R): 2 nM
concentration-response curve for K+-induced exocytosis of [3H]NE (SH-SY5Y-H3 cells [5]): significantly shifted downwards

CCN(c1nc(N)c(C(=O)N=C(N)N)nc1Cl)C(C)C [EIPA, 5-(N-ethyl-N-isopropyl)amiloride]
inhibition of NHE activity (Na+/H+ exchanger (NHE); EIPA 10 uM): 50%
mean rate of Na+-dependent intracellular alkalinization (NHE activity) (Na+/H+ exchanger (NHE); EIPA 10 uM, control 0.074): 0.031 pHi units/min
